Molecular target: T1, Pr-CTL (Pieris rapae, UniProt G5CJE6)
T1 construct: two tandem CRDs (residues 41-151 and 184-302)
T1 sequence (G5CJE6 20-313): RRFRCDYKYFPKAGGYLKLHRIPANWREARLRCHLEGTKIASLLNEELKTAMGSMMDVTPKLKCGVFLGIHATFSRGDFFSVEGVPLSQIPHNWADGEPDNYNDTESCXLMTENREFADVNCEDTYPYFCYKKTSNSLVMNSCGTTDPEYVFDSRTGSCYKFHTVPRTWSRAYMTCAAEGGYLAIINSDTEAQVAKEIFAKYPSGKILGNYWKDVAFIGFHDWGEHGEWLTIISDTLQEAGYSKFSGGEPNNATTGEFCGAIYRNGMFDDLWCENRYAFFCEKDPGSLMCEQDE
Experiment: carbohydrate binding assay (data not shown)
Conditions: calcium-dependent, described as agglutination of carbohydrates

| SMILES | carbohydrate binding assay (data not shown) |
| --- | --- |
| OC[C@H]1OC(O)[C@H](O)[C@@H](O)[C@H]1O (some centres unmarked) [galactose] | agglutination of different kind of carbohydrates, such as mannose, galactose and peptidoglycan (data not shown) |
| OC[C@H]1OC(O)[C@@H](O)[C@@H](O)[C@@H]1O (some centres unmarked) [mannose] | recombinant Pr-CTL possesses the calcium-dependent agglutination of different kind of carbohydrates, such as mannose |
